Consider 3 compounds from patent publication US4906661A, “Esters of aryloxypropanolamine derivatives” (E. I. Du Pont de Nemours and Company, priority 1989, dated 1990).

The nature of data set [1]: Half-life in dog whole blood (procedure D). The format is in vitro ADME. Conditions: 37° C., read-out: T1/2 dog blood. The procedure: (§1) In each experiment, 1 ml of a solution containing 50 μg of the test compound was added to 1 ml of whole blood or 1 ml of a 33% (w/v) liver homogenate. The samples were incubated in a Dubnoff shaking metabolic incubator for 2.5, 5.0, 10.0, 20.0, 30.0 and 60.0 minutes at 37° C. At the designated time periods, the test mixtures were removed from the incubator and transferred to a 0° C. ice bath. Acetonitrile (2 ml) was immediately added and the mixtures were mixed to stop enzymatic hydrolysis. Zero time samples were prepared by adding 2 ml of acetonitrile to denature the proteins prior to addition of the test compounds. After centrifugation to sediment denatured proteins, 2 ml of the supernatant was removed and analyzed by high pressure liquid chromatography, using a mobile phase of 60% acetonitrile/40% 0.05 M sodium phosphate buffer (pH 6.6), a U.V. detector and Waters μ Bondapak Phenyl column.
(§2) The half life of each test compound was determined graphically by plotting the decrease in concentrations as a function of time.

Data set [2] is described as follows: Half-life in dog liver homogenate (procedure D). The format is in vitro ADME. The conditions noted are these: 37° C., read-out: T1/2 dog liver homogenate. As for the experimental part: as §1, §2
Data set [3] concerns β-adrenergic receptors, guinea pig trachea vs right atria. Description: Cardioselectivity, KB trachea/KB atria. The conditions noted are these: 10^(pA2 atria-pA2 trachea); ratio greater than one indicates cardioselectivity. The format is cell-based.
Description: Each tissue was suspended between a fixed glass rod and a Statham Universal Transducer connected to a Beckman recorder. Atria were allowed to beat spontaneously under a loading tension of approximately 0.5 gm. Intrinsic depressant or stimulant activity was determined for each compound by progressively increasing concentrations in the tissue baths at 60-minute intervals. Tissues were not washed between increments. The maximum concentration showing little or no cardiodepressant activity was chosen for blockade experiments. Changes in rate in response to isoproterenol, a standard β-receptor agonist, were measured in the absence and presence of test compounds. Spiral strips of guinea pig trachea were suspended under 5 gm resting tension and incubated with phentolamine, tropolone and cocaine. Active tension was generated by addition of carbachol (3.0×10^-7 M) and decreases in tension in response to isoproterenol were quantitated. Cumulative concentration-response curves were produced with isoproterenol both before and after 60-minute incubation of test compounds with atria and trachea. […] The degree of cardioselectivity was estimated from the ratio, KB trachea/KB atria (10^(pA2 atria-pA2 trachea)). A ratio greater than one indicates cardioselectivity. Test drugs were dissolved in distilled water and added to the bath (30 ml) in a volume of 10 or 100 μl.
Data set [4] deals with β2 receptors, guinea pig trachea (Cavia porcellus, UniProt Q8K4Z4). Description: cell-based. The procedure: Each tissue was suspended between a fixed glass rod and a Statham Universal Transducer connected to a Beckman recorder. Atria were allowed to beat spontaneously under a loading tension of approximately 0.5 gm. Intrinsic depressant or stimulant activity was determined for each compound by progressively increasing concentrations in the tissue baths at 60-minute intervals. Tissues were not washed between increments. […] Changes in rate in response to isoproterenol, a standard β-receptor agonist, were measured in the absence and presence of test compounds. Spiral strips of guinea pig trachea were suspended under 5 gm resting tension and incubated with phentolamine, tropolone and cocaine. Active tension was generated by addition of carbachol (3.0×10^-7 M) and decreases in tension in response to isoproterenol were quantitated. Cumulative concentration-response curves were produced with isoproterenol both before and after 60-minute incubation of test compounds with atria and trachea. […] The blocking potency of test compounds was estimated by computing pA2 values (-log KB) by the method of Furchgott, the Pharmacological Differentiation of Adrenergic Receptors, Ann. […] A ratio greater than one indicates cardioselectivity. Test drugs were dissolved in distilled water and added to the bath (30 ml) in a volume of 10 or 100 μl.

Data set [5] deals with heart rate response to isoproterenol. Description: Duration and potency of beta-blocking action in vivo, 3-hour infusion in anesthetized dogs, isoproterenol challenge. Conditions: Table II. Further details: species or system dog. As for the experimental part:
The duration of β-blockade was determined In vivo using pentobarbital-anesthetized dogs instrumented for measurement of heart rate using a Beckman cardiotachometer triggered electronically by a phasic aortic blood pressure signal. Both vagus nerves were served in the cervical region and the animals were mechanically ventilated. The experimental design used employed a 3-hour infusion of test compound. Bolus doses of isoproterenol (0.5 μg/kg) were used to assess the degree of β-blockade and recovery from β-blockade after […] of the infusion. The doses were spaced at 10-minute intervals and were given before, during and following the infusion of test compounds. The infusion rate was adjusted so that at the end of the 3-hour infusion period the degree of isoproterenol inhibition averaged about 50% of control. Following termination of blocker infusion, percent recovery from β-blockade was computed and the time associated with 80% recovery estimated.
^c Time in minutes for 50% recovery from 50% blockade levels after 3
Infusions of drug. Number of experiments is equal to or greater than thre
for each compound unless noted otherwise. Tabulated data are mean values
^c The betablocking activities were evaluated Invivo in a canine
model. The betablocker was infused in the animal for 3 hours with the dos
adjusted to give approximately 50%. blockage of the Isoproternolinduced
tachycardia. The infusion was then terminated and the time required for
80% recovery of blockade was recorded as duration of action of the
compound. The amount of drug infused during the 3 hours was averaged and
expressed as potency in ug/kg/min.

The target of data set [6] is β1 receptors, guinea pig right atria (Cavia porcellus, UniProt H0W3H1). Description: cell-based. As for the experimental part:
Each tissue was suspended between a fixed glass rod and a Statham Universal Transducer connected to a Beckman recorder. Atria were allowed to beat spontaneously under a loading tension of approximately 0.5 gm. Intrinsic depressant or stimulant activity was determined for each compound by progressively increasing concentrations in the tissue baths at 60-minute intervals. Tissues were not washed between increments. The maximum concentration showing little or no cardiodepressant activity was chosen for blockade experiments. Changes in rate in response to isoproterenol, a standard β-receptor agonist, were measured in the absence and presence of test compounds. Spiral strips of guinea pig trachea were suspended under 5 gm resting tension and incubated with phentolamine, tropolone and cocaine. Active tension was generated by addition of carbachol (3.0×10^-7 M) and decreases in tension in response to isoproterenol were quantitated. Cumulative concentration-response curves were produced with isoproterenol both before and after 60-minute incubation of test compounds with atria and trachea. […] The blocking potency of test compounds was estimated by computing pA2 values (-log KB) by the method of Furchgott, the Pharmacological Differentiation of Adrenergic Receptors, Ann. […] The degree of cardioselectivity was estimated from the ratio, KB trachea/KB atria (10^(pA2 atria-pA2 trachea)). A ratio greater than one indicates cardioselectivity. Test drugs were dissolved in distilled water and added to the bath (30 ml) in a volume of 10 or 100 μl.

The conditions of data set [7]: topical (eye), Physicians' Desk Reference 1981; cited from earlier work.
Data set [8] is described as follows: Ocular toxicity noted in corneal anesthesia test. The format is in vivo. Conditions: Table IV footnote e.

Structures can show the parent of a compound that is named as a salt. Where two headings read alike, the source gives them in different places.

Chain of β2 receptors, guinea pig trachea (Q8K4Z4 whole entry): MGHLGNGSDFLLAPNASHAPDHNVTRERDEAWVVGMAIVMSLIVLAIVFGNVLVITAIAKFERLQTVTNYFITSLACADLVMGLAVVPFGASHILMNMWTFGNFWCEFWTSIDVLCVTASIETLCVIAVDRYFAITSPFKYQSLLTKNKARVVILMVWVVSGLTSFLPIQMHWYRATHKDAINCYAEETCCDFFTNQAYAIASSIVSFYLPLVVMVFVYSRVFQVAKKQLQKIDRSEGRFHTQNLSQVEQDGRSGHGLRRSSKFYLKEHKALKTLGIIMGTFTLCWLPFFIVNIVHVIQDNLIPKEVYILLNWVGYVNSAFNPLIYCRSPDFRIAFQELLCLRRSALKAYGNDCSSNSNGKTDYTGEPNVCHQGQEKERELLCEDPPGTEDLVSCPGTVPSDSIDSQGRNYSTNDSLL
Chain of β1 receptors, guinea pig right atria (H0W3H1 1-470): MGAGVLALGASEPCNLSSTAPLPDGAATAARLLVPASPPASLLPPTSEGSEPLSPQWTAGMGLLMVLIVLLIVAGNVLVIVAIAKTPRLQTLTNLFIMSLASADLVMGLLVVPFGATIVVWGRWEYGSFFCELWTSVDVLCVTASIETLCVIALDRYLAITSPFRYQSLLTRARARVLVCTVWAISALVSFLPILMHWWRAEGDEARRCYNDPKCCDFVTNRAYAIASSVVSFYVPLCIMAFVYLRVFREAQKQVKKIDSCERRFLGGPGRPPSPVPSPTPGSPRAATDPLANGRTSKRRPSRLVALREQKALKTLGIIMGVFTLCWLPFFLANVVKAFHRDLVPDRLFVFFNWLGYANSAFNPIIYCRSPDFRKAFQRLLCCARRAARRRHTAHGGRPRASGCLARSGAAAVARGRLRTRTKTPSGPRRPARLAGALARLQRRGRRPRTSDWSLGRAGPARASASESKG

With `COC(=O)c1ccccc1OCC(O)CNCCNC(=O)Nc1ccccc1` (stereo not drawn) [Example IV, Methyl 2-[2-Hydroxy-3-[N-[2-[N-(phenylaminocarbonyl)amino]ethyl]amino]propoxy]benzoate], the half-life in data set [1] and in data set [2] was above 3 h each time. Further, the “Cardioselectivity KB (Trachea)/KB (Atria)” value in data set [3] turned out to be 25. For the same compound, the Kb is 200 nM in data set [4] (Table I, guinea pig trachea, vs isoproterenol, -log KB, read-out: PA2 Trachea (converted)) and 7.94 nM in data set [6] (Table I, guinea pig right atria, vs isoproterenol, -log KB, read-out: PA2 Rt. Atria (converted)). In data set [5] (50% recovery from β-blockade after termination of infusion), the “Recovery Time 50%” value is reported as above 60 min. For the same compound, the “Recovery Time 80%” value in data set [5] (80% recovery from β-blockade after termination of infusion) is given as above 60 min. Further, the “% I, percent inhibition of heart rate response to isoproterenol” value in data set [5] (end of 3-hour infusion, isoproterenol 0.5 μg/kg) amounted to 72 ± 3%.
As for `CC(C)(C)NC[C@H](O)COc1nsnc1N1CCOCC1` [timolol maleate], the “adverse reactions to the topical use” value in data set [7] was “bronchospasm and heart failure, as well as cardiac conduction defects”.
As for `CCOC(=O)CCc1ccccc1OCC(O)CNCCNS(=O)(=O)c1ccc(C)cc1` (stereo not drawn) [No. 8 (Table IV)], the ocular toxicity entry in data set [8] is “extreme ocular toxicity”. Besides, the Kb in data set [4] (Table IV, mean, n ≥ 2, range ≤ ± 0.2 units, read-out: pA2 Trachea (converted)) is 126 nM; in data set [6] (Table IV, mean, n ≥ 2, range ≤ ± 0.2 units, read-out: pA2 Atria (converted)) it was 794 nM.
